According to ChEMBL document CHEMBL1159199, “A new antiplatelet diarylheptanoid from Alpinia blepharocalyx” (1998):

Legend:
Format in all cases: functional
[1] = Antiplatelet activity in human whole blood assessed as inhibition of ristocetin-induced platelet aggregation at 100 ug/mL relative to control
[2] = Antiplatelet activity in human whole blood assessed as inhibition of ADP-induced platelet aggregation at 100 ug/mL relative to control
[3] = Antiplatelet activity in human whole blood assessed as inhibition of collagen-induced platelet aggregation at 100 ug/mL relative to control
[4] = Antiplatelet activity in human whole blood assessed as inhibition of arachidonic acid-induced platelet aggregation at 100 ug/mL relative to control

Structure (SMILES)	inhibition at 100 µg/mL [1] [%]	inhibition at 100 µg/mL [2] [%]	inhibition at 100 µg/mL [3] [%]	inhibition at 100 µg/mL [4] [%]
O=C(/C=C(O)/C=C/c1ccc(O)cc1)CCc1ccc(O)cc1	62.8	100	77.3	100
COc1cc(/C=C/c2ccc(O)cc2)oc(=O)c1	100	100	86.9	100
COc1cc(O)cc2c1C(=O)CC(c1ccc(O)cc1)O2 (stereo unspecified)	37.2	14.5	57.7	26.2
O=Cc1ccc(O)cc1 [4-HYDROXYBENZALDEHYDE]	11	39.8	23.6	5.4
O=C(/C=C/c1ccc(O)cc1)CC(=O)/C=C/c1ccc(O)cc1 [BISDEMETHOXYCURCUMIN]	38.3	35.4	76.3	46.8
COc1cc(O)cc(O)c1C(=O)/C=C/c1ccccc1 [CARDAMOMIN]	0	62.9	56	100
COc1cc(/C=C/c2ccccc2)oc(=O)c1 [DESMETHOXYYANGONIN]	33.3	43.8	48.9	100
COc1cc(O)cc(O)c1C(=O)/C=C/c1ccc(O)cc1 [HELICHRYSETIN]	63.8	48.9	32.3	100
COc1ccc2c(c1)c(CC(=O)O)c(C)n2C(=O)c1ccc(Cl)cc1 [INDOMETHACIN]	52.1	36.7	71.1	100
